In patent US8592396B2, “Glucokinase activators and methods of using same” (Bristol-Myers Squibb Company, priority 2010, dated 2013):

Legend:
Human Glucokinase = molecular target: T1, Human Glucokinase (Homo sapiens, UniProt P35557); test: Glucokinase tandem enzymatic assay; assay type: biochemical; conditions: 12 mM glucose; for Emax: expressed as a % of basal activation, read-out: Maximal activation (%) Human Glucokinase @ 12 mM Glucose
T1 construct: Full-length human hepatic GK (untagged) was expressed; made in house; host or cells: E. coli BL21 STAR (DE3)pLysS
T1 sequence (P35557 1-466 isoform P35557-2): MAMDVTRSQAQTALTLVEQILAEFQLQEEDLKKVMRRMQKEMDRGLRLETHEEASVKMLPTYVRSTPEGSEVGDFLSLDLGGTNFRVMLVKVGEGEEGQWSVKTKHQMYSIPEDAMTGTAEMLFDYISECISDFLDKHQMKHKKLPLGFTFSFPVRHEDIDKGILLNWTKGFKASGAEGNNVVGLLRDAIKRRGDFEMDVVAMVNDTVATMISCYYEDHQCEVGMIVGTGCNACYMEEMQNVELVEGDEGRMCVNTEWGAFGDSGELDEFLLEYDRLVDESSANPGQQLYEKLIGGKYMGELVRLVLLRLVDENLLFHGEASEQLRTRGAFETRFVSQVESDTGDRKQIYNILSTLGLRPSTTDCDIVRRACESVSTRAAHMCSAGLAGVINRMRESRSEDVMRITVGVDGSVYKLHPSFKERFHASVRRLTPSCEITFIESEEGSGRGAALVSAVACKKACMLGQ
Procedure: Glucokinase Tandem Enzymatic Assay
Enzymatic activity of human glucokinase (GK) was measured by incubating GK, ATP, and glucose for discrete time periods followed by quenching with EDTA (ethylenediamine tetra-acetic acid). Relative amounts of product glucose-6-phosphate (G6P) were measured by then running a detection assay using G6P dehydrogenase and measuring the conversion of ThioNAD (thio-nicotinamide adenine dinucleotide) to ThioNADH (thio-dihydronicotinamide adenine dinucleotide) at a wavelength of 405 nm. This “uncoupled” enzymatic reaction is denoted as the GK “tandem” assay. Activation of GK by compounds can be assessed using this assay. The GK tandem assay protocol described below was followed using a range of activator compound concentrations from 0 to 100 μM at 5 and 12 mM of glucose. Human full-length glucokinase (GK, 15 nM) was incubated with 5 or 12 mM glucose in a 384 well black microtiter plate with a clear bottom. To initiate the GK reaction, magnesium-ATP (3 mM final concentration) was added to GK in buffer (final buffer conditions of 25 mM HEPES buffer, pH 7.1, containing 1 mM dithiothreitol and 5% DMSO). The total reaction volume was 20 μL. The reaction was allowed to proceed for ten minutes and was then quenched with 5 μL EDTA; 45 mM final). The components of the detection reaction, ThioNAD and G6PDH (glucose-6-phosphate dehydrogenase) (final concentrations of 650 μM and 3.33 Units, respectively), were then added together in a volume of 25 μL, (to give a total volume of 50 μL). Absorbance measurements were made at 405 nm on a SPECTRAMAX® Plus 384 absorbance plate reader (Molecular Devices). Absorbance was read, background glucose-6-phosphate levels were subtracted, after which activation was calculated as a percentage of control activity. Control activity was determined using GK in the presence of vehicle (DMSO), with background glucose-6-phosphate subtracted. Background glucose-6-phosphate was determined by pre-quenching GK with EDTA prior to reaction initiation with ATP.
Expression and Purification of Human GK
Full-length human hepatic GK (untagged) was expressed in BL21 STAR (DE3)pLysS cells (Invitrogen) at 25° C. as described by Mookhtiar et al. (1). The protein was purified essentially as described by Lange (2) with a slight modification. Briefly, cell pellets were lysed via three rounds of freezing and thawing, centrifuged at 15000 g for clarification, and precipitated with 40-65% (NH4)2SO4. The resulting pellet was resuspended in buffer, dialyzed, and applied directly to a Q-SEPHAROSE® (Sigma) column followed by elution with a linear 100-600 mM KCl gradient. GK containing fractions were pooled, dialyzed overnight vs. 25 mM Hepes pH 7.2/1 mM MgCl2/1 mM EDTA/0.1 M KCl/1 mM DTT, then dialyzed again with same buffer with 10% glycerol added.

[1] = tested on: male DIO (diet-induced obese) C57BL/6J mice; test: Oral glucose tolerance test (OGTT) in DIO mice; assay type: in vivo; conditions: 30 μmol/kg given orally 60 min before 2 g/kg oral glucose; DIO C57BL/6J mice; ΔAUC 0-120 min
Procedure: In Vivo Studies: Oral Glucose Tolerance Test (OGTT)
Oral glucose tolerance tests were carried out on male DIO (diet-induced obese) C57BL/6J mice fed a high fat diet (60% kcal from fat) for 26 weeks prior to experimentation. Mice were fasted overnight before use for experiments. A test compound or vehicle (either: 1) 40% PEG 400+10% Cremophore+50% water or 2) 10% dimethyl acetamide+10% ethanol+10% Cremophore+70% water) was given orally 60 min before oral administration of a glucose solution at a dose of 2 g/kg body weight (oral glucose tolerance test; OGTT). Blood glucose levels were measured from tail-bled samples taken at different time points before and after administration of glucose (time course of 2 hours). A time curve of the blood glucose was generated and the change from baseline area-under-the curve (ΔAUC) from 0-120 min was calculated (the time glucose administration being time zero).

| SMILES | EC50 (Human Glucokinase) [nM] | Emax (Human Glucokinase) [%] | Reduction in Glucose AUC at 30 μmol/kg dose [1] [%] |
| --- | --- | --- | --- |
| CCOP(C)(=O)Cn1ccc(Nc2ncnc3ccc(OC(C)C)cc23)n1 (racemic) [Example 3] | 810 | 134 | – |
| CCOP(C)(=O)Cc1csc(Nc2ncnc3ccc(OC(CF)CF)cc23)n1 (racemic) [Example 6] | 390 | – | – |
| CCOP(=O)(Cc1csc(Nc2ncnc3ccc(OC(CF)CF)cc23)n1)OCC [Example 1] | 91 | 145 | 93 |
| CCOP(=O)(Cc1csc(Nc2ncnc3ccc(OC(C)C)cc23)n1)OCC [Example 2] | 136 | – | – |
| CCOP(=O)(Cc1csc(Nc2ncnc3ccc(O[C@@H](C)COC)cc23)n1)OCC [Example 4] | – | 180 | – |
